We go through 20 compounds from patent US9757369B2, “Heterocyclic GSK-3 allosteric modulators” (Consejo Superior de Investigaciones Cientificas (CSIC), priority 2011, dated 2017).

Structures are written as SMILES. “Also recorded” adds a separate entry of the source.

One experiment concerns the target GSK-3β (Homo sapiens, UniProt P49841). Briefly: Kinetic study varying ATP concentration (ADP-Glo Kinase Assay, double-reciprocal plot). Conditions: ATP 1 to 50 μM, GS-2 12.5 μM, inhibitor 5 to 10 μM. It counts as biochemical. How it is done:
The ATP concentrations were varied from 1 to 50 µM, whereas the concentration of the GS-2 peptide was kept constant at 12.5 µM. The concentrations of inhibitor (compound 6) used are shown in the plot.
The kinetic studies conducted by varying the ATP concentration from 1 to 50 µM, and the concentration of inhibitor 6 from 5 to 10 µM, were performed using the ADP-Glo™ Kinase Assay.
As for `CCCCCCCCCCCC(=O)NNC(=O)c1c(O)c2ccccc2n(CC)c1=O` [Compound 6, N′-Dodecanoyl-1-ethyl-4-hydroxy-2-oxo-1,2-dihydroquinoline-3-carbohydrazide], the “mode of inhibition versus ATP” value was “non-ATP-competitive inhibitor”.

A further experiment relates to GSK-3β. Kind of experiment: Study of the inhibition of GSK-3β as a function of enzyme-inhibitor pre-incubation time. Format: biochemical, human. As to conditions: different enzyme incubation times, two inhibitor concentrations. How it is done:
In order to determine the binding mode of these compounds, different kinetic studies were performed, varying the reaction times and the ATP concentration and the substrate concentration.
`CCCCCCCCCCCC(=O)NNC(=O)c1c(O)c2ccccc2n(CC)c1=O` [Compound 6, N′-Dodecanoyl-1-ethyl-4-hydroxy-2-oxo-1,2-dihydroquinoline-3-carbohydrazide]: the “reversibility of enzyme inhibition” value was “reversible inhibitor”.

In another experiment the test system is GSK-3β. Kind of experiment: Kinetic study varying GS-2 peptide substrate concentration (double-reciprocal plot). It counts as biochemical, human. Conditions: GS-2 15.5 to 100 μM, ATP 1 μM, inhibitor 5 to 10 μM. How it is done: The GS-2 concentrations were varied from 15.5 to 100 µM, whereas the ATP concentration was kept constant at 1 µM. The concentrations of inhibitor (compound 6) used are shown in the plot.
On the other hand, we also studied the dependence of GSK-3β activity in the presence of these inhibitors as a function of the concentration of the substrate, the GS-2 peptide, used in the assays.
As for `CCCCCCCCCCCC(=O)NNC(=O)c1c(O)c2ccccc2n(CC)c1=O` [Compound 6, N′-Dodecanoyl-1-ethyl-4-hydroxy-2-oxo-1,2-dihydroquinoline-3-carbohydrazide], the “mode of inhibition versus substrate GS-2” value is on record as “substrate-non-competitive inhibitor”.

Another experiment concerns the target recombinant human GSK3 enzyme (GSK-3β) (Homo sapiens, UniProt P49841). Kind of experiment: Measurement of the inhibition of GSK-3β (Kinase-Glo luminometric assay). It counts as biochemical. Conditions: 25 μM substrate, 1 μM ATP, 30 min at 30 °C. On the technique in general: Kinase-Glo reads ATP consumption through a luciferase reaction.
Procedure: The enzyme inhibition assays were performed using the luminometric methodology of Kinase-Glo®. […] The luminescent kinase kit (catalogue no. V6711) was obtained from Promega. The ATP and the other reagents were purchased from Sigma-Aldrich (St. Louis, Mo.).
The assays were performed in buffer using 96-well plates. 10 µl of the compound to be assayed (dissolved in DMSO at a concentration of 1 mM, and, in turn, dissolved in buffer to the concentration necessary for the experiment) and 10 µl (20 ng) of the enzyme are added to each well, followed by 20 µl of buffer containing 25 µM of the substrate and 1 µM of ATP. […] Following a half-hour incubation at 30° C., the enzymatic reaction is stopped with 40 µl of the Kinase-Glo® reagent. The luminescence is measured after ten minutes, using a POLARstar Optima multimode reader. The activity is proportional to the difference between the total ATP and the ATP consumed. The inhibitory activities were calculated as a function of the maximum activity, measured in the absence of inhibitor.
The IC50 is the concentration at which inhibition is half-maximal. Regarding `CCCCCCCC(=O)NNC(=O)c1c(O)c2ccccc2n(C)c1=O` [Compound 3, 4-Hydroxy-1-methyl-N′-octanoyl-2-oxo-1,2-dihydroquinoline-3-carbohydrazide], the IC50 was 8.67 ± 0.4 µM.

On to `CCCCCCCCCCCC(=O)NNC(=O)c1c(O)c2ccccc2n(C)c1=O` [Compound 4, N′-Dodecanoyl-4-hydroxy-1-methyl-2-oxo-1.2-dihydroquinoline-3-carbohydrazide], for which the IC50 amounted to 7.35 ± 0.23 µM.

Turning to `CCCCCCCCCCCC(=O)NNC(=O)c1c(O)c2ccccc2n(CC)c1=O` [Compound 6, N′-Dodecanoyl-1-ethyl-4-hydroxy-2-oxo-1,2-dihydroquinoline-3-carbohydrazide], the IC50 came to 2.85 ± 0.36 µM.

For the compound `CCCCCCCCCCCC(=O)NNC(=O)c1c(O)c2ccccc2n(CC2CC2)c1=O` [Compound 45, 1-(cyclopropylmethyl)-N′-dodecanoyl-4-hydroxy-2-oxo-1,2-dihydroquinoline-3-carbohydrazide], the half-inhibitory concentration (IC50) stood at 5.25 ± 0.58 µM.

`CCCCCCCCCCCC(=O)NNC(=O)c1c(O)c2ccccc2n(Cc2ccccc2)c1=O` [Compound 46, 1-Benzyl-N′-dodecanoyl-4-hydroxy-2-oxo-1,2-dihydroquinoline-3-carbohydrazide]: the 50% inhibitory concentration (IC50) was found to be 5.51 ± 0.27 µM.

On to `CCCCCCCC(=O)NNC(=O)c1c(O)c2cc(Br)ccc2n(C)c1=O` [Compound 49, 6-Bromo-4-hydroxy-1-methyl-N′-octanoyl-2-oxo-1,2-dihydroquinoline-3-carbohydrazide], for which the IC50 was 6.28 ± 0.33 µM.

Consider `CCCCCCCCCCCC(=O)NNC(=O)c1c(O)c2cc(Br)ccc2n(C)c1=O` [Compound 50, 6-Bromo-N′-dodecanoyl-4-hydroxy-1-methyl-2-oxo-1,2-dihydroquinoline-3-carbohydrazide], for which the IC50 stood at 4.28 ± 0.5 µM.

On to `CCCCCCCC(=O)NNC(=O)c1c(O)c2cc(Br)ccc2n(CC)c1=O` [Compound 51, 6-Bromo-1-ethyl-4-hydroxy-N′-octanoyl-2-oxo-1,2-dihydroquinoline-3-carbohydrazide], for which the IC50 turned out to be 7.34 ± 0.2 µM.

As to `CCCCCCCCCCCC(=O)NNC(=O)c1c(O)c2cc(Br)ccc2n(CC)c1=O` [Compound 52, 6-Bromo-N′-dodecanoyl-1-ethyl-4-hydroxy-2-oxo-1,2-dihydroquinoline-3-carbohydrazide], the IC50 worked out at 2.01 ± 0.18 µM.

Take `CCCCCCCC(=O)NNC(=O)c1c(O)c2cc(Cl)ccc2n(C)c1=O` [Compound 53, 6-Chloro-4-hydroxy-1-methyl-N′-octanoyl-2-oxo-1,2-dihydroquinoline-3-carbohydrazide]: the IC50 was 8.48 ± 0.3 µM.

Take `CCCCCCCCCCCC(=O)NNC(=O)c1c(O)c2cc(Cl)ccc2n(C)c1=O` [Compound 54, 6-Chloro-N′-dodecanoyl-4-hydroxy-1-methyl-2-oxo-1,2-dihydroquinoline-3-carbohydrazide]: the IC50 stood at 5.95 ± 0.49 µM.

Take `CCCCCCCC(=O)NNC(=O)c1c(O)c2cc(Cl)ccc2n(CC)c1=O` [Compound 55, 6-Chloro-1-ethyl-4-hydroxy-N′-octanoyl-2-oxo-1,2-dihydroquinoline-3-carbohydrazide]: the IC50 was found to be 9.42 ± 0.23 µM.

Consider `CCCCCCCCCCCC(=O)NNC(=O)c1c(O)c2cc(Cl)ccc2n(CC)c1=O` [Compound 56, 6-Chloro-N′-dodecanoyl-1-ethyl-4-hydroxy-2-oxo-1,2-dihydroquinoline-3-carbohydrazide], for which the IC50 came to 3.18 ± 0.28 µM.

In the case of `CCCCCCCC(=O)NNC(=O)c1c(O)c2ccc(Cl)cc2n(C)c1=O` [Compound 57, 7-Chloro-4-hydroxy-1-methyl-N′-octanoyl-2-oxo-1,2-dihydroquinoline-3-carbohydrazide], the 50% inhibitory concentration (IC50) was determined as 6.66 ± 0.29 µM.

On to `CCCCCCCCCCCC(=O)NNC(=O)c1c(O)c2ccc(Cl)cc2n(C)c1=O` [Compound 58, 7-Chloro-N′-dodecanoyl-4-hydroxy-1-methyl-2-oxo-1,2-dihydroquinoline-3-carbohydrazide], for which the IC50 stood at 4.03 ± 0.19 µM.

As to `CCCCCCCC(=O)NNC(=O)c1c(O)c2ccc(Cl)cc2n(CC)c1=O` [Compound 59, 7-Chloro-1-ethyl-4-hydroxy-N′-octanoyl-2-oxo-1,2-dihydroquinoline-3-carbohydrazide], the IC50 is 4.83 ± 0.23 µM.

For the compound `CCCCCCCCCCCC(=O)NNC(=O)c1c(O)c2ccc(Cl)cc2n(CC)c1=O` [Compound 60, 7-Chloro-N′-dodecanoyl-1-ethyl-4-hydroxy-2-oxo-1,2-dihydroquinoline-3-carbohydrazide], the IC50 worked out at 2.48 ± 0.26 µM.

Turning to `CCCCCCCC(=O)NNC(=O)c1c(O)c2ccc(Cl)cc2n(Cc2ccccc2)c1=O` [Compound 61, 1-Benzyl-7-chloro-4-hydroxy-N′-octanoyl-2-oxo-1,2-di hydroquinoline-3-carbohydrazide], the IC50 amounted to 5.96 ± 0.17 µM.

`CCCCCCCCCCCC(=O)NNC(=O)c1c(O)c2ccc(Cl)cc2n(Cc2ccccc2)c1=O` [Compound 62, 1-Benzyl-7-chloro-N′-dodecanoyl-4-hydroxy-2-oxo-1,2-dihydroquinoline-3-carbohydrazide]: the IC50 turned out to be 5.99 ± 0.22 µM.

`CCCCCCCCCCCC(=O)N(Cc1ccccc1)NC(=O)c1c(O)c2ccccc2n(Cc2ccccc2)c1=O` [Compound 63, N′-1-dibenzyl-N′-dodecanoyl-4-hydroxy-2-oxo-1,2-dihydroquinoline-3-carbohydrazide]: the IC50 is 6.84 ± 0.51 µM.

For the next experiment, the system named is RAW 264.7 cells. Kind of experiment: Anti-inflammatory activity: nitrite production (Griess method) in LPS-stimulated RAW 264.7 cells. As to conditions: 1.25, 2.5, 5 and 10 μM; 1 h pre-treatment, 0.4 μg/ml LPS 24 h. It counts as cell-based. How it is done: A monolayer culture of RAW 264.7 cells growing in 96-well plates is used. The cells are treated for 1 h with the compounds evaluated. Subsequently, the inflammatory activity is stimulated with 0.4 µg/ml of LPS for 24 h. Once this time has elapsed, the production of nitrites is evaluated by means of the Griess method. Briefly, 50 µl of supernatant are transferred to 96-well plates and 50 µl of Griess reagent are added. The mixture is incubated for 15 minutes at room temperature and the absorbance at 520 nm is measured in a microplate reader.
Regarding `CCCCCCCCCCCC(=O)NNC(=O)c1c(O)c2ccccc2n(CC)c1=O` [Compound 6, N′-Dodecanoyl-1-ethyl-4-hydroxy-2-oxo-1,2-dihydroquinoline-3-carbohydrazide], the “decrease in nitrite release” value was “dose-dependent effect on the decrease in nitrite release; also recorded: decrease in inflammatory activity”.
